Data as given in US8178654B2, “Estrogen receptor intramolecular folding systems, estrogen receptor intramolecular folding sensors, methods of use thereof, methods of detecting ER ligands, and methods of detecting ER agonists and antagonists” (Stanford University, priority 2006, dated 2012).

Columns and labels:
hERG521R = hERG521R (Homo sapiens, UniProt P03372, G400V/G521R); conditions: mutant human ER
Procedure: (§1) For transfection, 200 ng DNA/well were used in 12 well culture plates. Volumes of Lipofectamine were as recommended by the manufacturer. The co-transfection of 10 ng/well Fluc DNA served as control for normalizing transfection. The cells were assayed after 18 hours of incubation at 37° C. with 5% CO2. The luminometry assay for Renilla Luciferase activity was performed as per protocol published previously. In brief, the cells were lysed in 200 μl of 1× passive lysis buffer (Promega, Madison, Wis.) by shaking for 15 min at room temperature. The cell lysates were centrifuged for 5 min at 10,000 rpm at 4° C. Twenty μl of supernatants were assayed by adding 1 μg of substrate coelenterazine in 100 μl of 0.05M sodium phosphate buffer (pH 7.0) followed by photon counting in the luminometer (Turner Designs, model T 20/20, Sunnyvale, Calif.) for 10 s. The readings were normalized by measuring the protein concentration in the cell lysates and also by measuring the FLUC activity. Activity of RLUC was represented as normalized relative light units (RLU) per microgram of protein.

[1] = target: T1, hER281-549 (human estrogen receptor alpha ligand binding domain amino acids 281-549) (Homo sapiens, UniProt P03372, G400V); experiment: Ligand-induced intramolecular folding split RLUC complementation, N-RLUC-hER281-549-C-RLUC in transfected cells; type: cell-based; conditions: for ligand-induced RLUC complementation signal (in words): transfected cells, 1 μM ligand, 18 hours
T1 construct: expressed in transfected cells; host or cells: 293T (transient); also transfected MCF7 and MDA-MB231
T1 sequence (P03372 281-549 G400V): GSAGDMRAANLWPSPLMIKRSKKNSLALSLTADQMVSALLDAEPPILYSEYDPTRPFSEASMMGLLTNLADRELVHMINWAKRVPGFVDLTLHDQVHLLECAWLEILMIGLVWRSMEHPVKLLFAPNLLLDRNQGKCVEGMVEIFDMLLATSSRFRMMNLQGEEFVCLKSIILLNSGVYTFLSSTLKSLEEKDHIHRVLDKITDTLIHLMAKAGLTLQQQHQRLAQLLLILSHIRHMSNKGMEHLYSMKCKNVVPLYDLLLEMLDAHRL
Procedure: as §1
The cells were assayed for RLUC activity after 18 hours of incubation. The results were normalized as mentioned in the previous experiments.
The results were normalized as mentioned in the previous experiments.
(§2) The ligand agonists and antagonists specific intramolecular folding were studied in ER positive and negative cell lines. […] The cells exposed to solvent DMSO served as control. The same samples were analysed by Western blot for the detection of the transfected protein level using anti-RLUC antibody using the method mentioned above.

[2] = target: T2, fusion protein N-RLUC-hER281-549-C-RLUC in 293T cells (Homo sapiens, UniProt P03372, G400V); experiment: Western blot of sensor fusion protein level in transfected 293T cells (anti-RLUC antibody); type: cell-based; conditions: 1 μM ligand, 18 hours
T2 construct: expressed in transfected cells; host or cells: 293T (transient)
T2 sequence (P03372 281-549 G400V): T1 sequence (P03372 281-549 G400V)
Procedure: as §2

Chain of hERG521R (P03372 281-595 G400V/G521R): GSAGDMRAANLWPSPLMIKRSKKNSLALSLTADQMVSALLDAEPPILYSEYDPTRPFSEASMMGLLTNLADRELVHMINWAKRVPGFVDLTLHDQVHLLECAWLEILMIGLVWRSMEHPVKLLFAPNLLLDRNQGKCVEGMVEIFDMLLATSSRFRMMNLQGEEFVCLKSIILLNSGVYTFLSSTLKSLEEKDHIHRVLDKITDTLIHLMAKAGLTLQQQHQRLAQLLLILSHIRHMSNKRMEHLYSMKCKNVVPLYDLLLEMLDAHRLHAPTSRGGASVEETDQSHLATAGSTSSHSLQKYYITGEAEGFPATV

Compound	expressed fusion (sensor) protein level [2]	ligand-induced RLUC complementation signal (in words) [1]	further results
4-hydroxytamoxifen			receptor mediated RLUC complementation (hERG521R): 3-5%; RLUC complementation at different time points (in words) [1]: significant (P<0.0015) level of RLUC complementation; complemented Renilla Luciferase activity relative to cells before exposed to ligand [1]: 80±15 times; concentration dependence of RLUC activity (in words) [1]: increased RLUC activity
N.N.[Cl][Pt][Cl] [Cisplatinum]	significant reduction in the expressed fusion protein levels	not significantly different from cells transfected and not exposed to any ligands	
COc1cccc2c1C(=O)c1c(O)c3c(c(O)c1C2=O)C[C@@](O)(C(=O)CO)C[C@@H]3O[C@H]1C[C@H](N)[C@H](O)[C@H](C)O1 [Doxirubicin]		not significantly different from cells transfected and not exposed to any ligands	
O=C(O[C@@H]1Cc2c(O)cc(O)cc2O[C@@H]1c1cc(O)c(O)c(O)c1)c1cc(O)c(O)c(O)c1 [Epigallocatechin gallate]	significant reduction in the expressed fusion protein levels	not significantly different from cells transfected and not exposed to any ligands	
C[C@]12CC[C@@H]3c4ccc(O)cc4C[C@@H](CCCCCCCCC[S+]([O-])CCCC(F)(F)C(F)(F)F)[C@H]3[C@@H]1CC[C@@H]2O (stereo partly shown) [ICI182,780]	no significant level of degradation		
